In patent publication US12281363B2, “Methods for detecting antiviral-drug resistant virus” (Secretary of State for Health and Social Care, priority 2018, dated 2025):
Where two headings read alike, the source gives them in different places.

Test system: HSV-1
Assay: Plaque reduction assay, HSV-1 clinical isolates on Vero cells
Type: cell-based
Details: Human alphaherpesvirus 1, Vero
Source text: Viral isolates were used to infect a sub-confluent monolayer of Vero cells at a concentration of 75 or 50 plaque forming units (PFU) per well for HSV-1 and HSV-2, respectively. […] CMC medium typically used to create a semisolid interface and prevents indiscrimate viral spreading. Other materials (e.g. agar) may also be used to create this interface.
Cells were fixed with 10% formalin and stained with crystal violet before enumeration of the plaques (microscopic observation or use of fluorescent antibodies for detection is also suitable). The data obtained from these experiments were then expressed as percent inhibition of viral infectivity relative to the no drug control.
Definitions of phenotypic drug susceptibility classification as sensitive or resistant were as follows: ACV, <3 μM or >40 μM; PCV, <10 μM or >40 μM; CDV, <24 μM or >30 μM; FOS, <250 μM or >400 μM; and ACV, <6.5 μM or >40 μM; PCV, <38 μM or >40 μM; FOS, <250 μM or >400 μM for HSV-1 and HSV-2, respectively. Any IC50 values falling in between these sensitive and resistant cut-offs were reported as intermediate resistance.
The phenotype (i.e. reactivity to a drug) of the virus was characterised by the plaque reduction assay as described above.

Measured: IC50

Nc1nc2c(ncn2COCCO)c(=O)[nH]1 [Aciclovir, acyclovir]
3 to 40 µM: read-out: Drug susceptibility Aciclovir (ACV), isolate HPG002, HSV-1 pol E992K (2974G>A), also TK insert (G) nt 430-436, pol A1169T | read-out: Drug susceptibility Aciclovir (ACV), isolate HPG003, HSV-1 TK Y172S (515A>C) | read-out: Drug susceptibility Aciclovir (ACV), isolate HPG008, HSV-1 TK V204G (611T>G) | read-out: Drug susceptibility Aciclovir (ACV), isolate HPG010, HSV-1 TK Q125* (373C>T) | read-out: Drug susceptibility Aciclovir (ACV), isolate HPG011, HSV-1 TK Q125* (373C>T) | read-out: Drug susceptibility Aciclovir (ACV), isolate HPG013, HSV-1 TK M121I (363G>A) | read-out: Drug susceptibility Aciclovir (ACV), isolate HPG013, HSV-1 pol D83A (248A>C), also TK M121I, pol A1169T | read-out: Drug susceptibility Aciclovir (ACV), isolate HPG018, HSV-1 TK frameshift (881delC to 885delC) | read-out: Drug susceptibility Aciclovir (ACV), isolate HPG018, HSV-1 pol P1199T (3595C>A), also TK deletion (C) nt 881-885, pol A1169T | read-out: Drug susceptibility Aciclovir (ACV), isolate HPG025, HSV-1 pol E850Q (2548G>C), also TK R216C | read-out: Drug susceptibility Aciclovir (ACV), isolate HPG026, HSV-1 pol E850Q (2548G>C), also TK R216C, pol A1169T | read-out: Drug susceptibility Aciclovir (ACV), isolate HPG031, HSV-1 pol E1120A (3359A>C), also a TK resistance mutation (footnote e) | read-out: Drug susceptibility Aciclovir (ACV), isolate HPG031, HSV-1 pol G139R (415G>C or 415G>A), also a TK resistance mutation (footnote e) | read-out: Drug susceptibility Aciclovir (ACV), isolate HPG032, HSV-1 TK 183* (437_438insA) | read-out: Drug susceptibility Aciclovir (ACV), isolate HPG033, HSV-1 TK I358L (1072A>C), also TK T287M | read-out: Drug susceptibility Aciclovir (ACV), isolate HPG033, HSV-1 pol N1046T (3137A>C), also TK T287M, pol A1169T | read-out: Drug susceptibility Aciclovir (ACV), isolate HPG035, HSV-1 pol S239L (716C>T), also pol S724N | read-out: Drug susceptibility Aciclovir (ACV), isolate HPG037, HSV-1 TK L69M (205>A), also TK Y239H | read-out: Drug susceptibility Aciclovir (ACV), isolate HPG037, HSV-1 TK R256W (766C>T) | read-out: Drug susceptibility Aciclovir (ACV), isolate HPG037, HSV-1 TK Y239H (715T>C) | read-out: Drug susceptibility Aciclovir (ACV), isolate HPG039, HSV-1 TK 85* or H58fs (169delC, 170delC, 171delC, or 172delC) | read-out: Drug susceptibility Aciclovir (ACV), isolate HPG042, HSV-1 TK frameshift (881delC to 885delC) | read-out: Drug susceptibility Aciclovir (ACV), isolate HPG043, HSV-1 TK 183* (437_438insA) | read-out: Drug susceptibility Aciclovir (ACV), isolate HPG045, HSV-1 TK L49R (146T>G) | read-out: Drug susceptibility Aciclovir (ACV), isolate HPG045, HSV-1 pol L419I (1255C>A), also TK L49R, pol A1169T | read-out: Drug susceptibility Aciclovir (ACV), isolate HPG046, HSV-1 TK I166N (497T>A) | read-out: Drug susceptibility Aciclovir (ACV), isolate HPG047, HSV-1 pol E680 (2039A>C), also TK deletion (C) nt 548-553, pol A1169T | read-out: Drug susceptibility Aciclovir (ACV), isolate HPG051, HSV-1 pol D83A (248A>C), also TK R176stop | read-out: Drug susceptibility Aciclovir (ACV), isolate HPG052, HSV-1 TK Q34* (100C>T) | read-out: Drug susceptibility Aciclovir (ACV), isolate HPG054, HSV-1 pol E992K (2974G>A), also TK insert (G) nt 430-436, pol A1169T | read-out: Drug susceptibility Aciclovir (ACV), isolate HPG055, HSV-1 TK V204G (611T>G), also pol A1169AT
< 3 µM: read-out: Drug susceptibility Aciclovir (ACV), isolate HPG005, HSV-1 TK A37V (110C>T) | read-out: Drug susceptibility Aciclovir (ACV), isolate HPG005, HSV-1 TK A192T (574G>A) | read-out: Drug susceptibility Aciclovir (ACV), isolate HPG009, HSV-1 pol E992K (2974G>A), also pol A1169T | read-out: Drug susceptibility Aciclovir (ACV), isolate HPG014, HSV-1 pol A1115T (3343G>A) | read-out: Drug susceptibility Aciclovir (ACV), isolate HPG014, HSV-1 pol R993C (2977C>T) | read-out: Drug susceptibility Aciclovir (ACV), isolate HPG014, HSV-1 pol T54A (160A>G) | read-out: Drug susceptibility Aciclovir (ACV), isolate HPG015, HSV-1 pol 966stop or F965_I966insF (2892_2893insT to 2895_2896insT) | read-out: Drug susceptibility Aciclovir (ACV), isolate HPG016, HSV-1 pol A1169T (3505G>A) | read-out: Drug susceptibility Aciclovir (ACV), isolate HPG020, HSV-1 pol S911N (2732G>A), also pol A1169T | read-out: Drug susceptibility Aciclovir (ACV), isolate HPG041, HSV-1 pol S911N (2732G>A), also pol A1169T
> 40 µM: read-out: Drug susceptibility Aciclovir (ACV), isolate HPG006, HSV-1 pol G121S (361G>A), also a TK resistance mutation (footnote a) | read-out: Drug susceptibility Aciclovir (ACV), isolate HPG012, HSV-1 pol G985E (2954G>A), also TK A93V | read-out: Drug susceptibility Aciclovir (ACV), isolate HPG019, HSV-1 pol K750T (2249A>C), also TK deletion (G) nt 430-436, pol A1169T | read-out: Drug susceptibility Aciclovir (ACV), isolate HPG021, HSV-1 pol R681Q (2042G>A), also TK deletion (G) nt 430-436 | read-out: Drug susceptibility Aciclovir (ACV), isolate HPG021, HSV-1 pol T839A (2515A>G), also TK deletion (G) nt 430-436 | read-out: Drug susceptibility Aciclovir (ACV), isolate HPG027, HSV-1 TK V204G (611T>G), also pol S914L, A1169AT | read-out: Drug susceptibility Aciclovir (ACV), isolate HPG027, HSV-1 pol S914L (2741C>T), also TK V204G, pol A1169T | read-out: Drug susceptibility Aciclovir (ACV), isolate HPG029, HSV-1 TK Y172S (515A>C) | read-out: Drug susceptibility Aciclovir (ACV), isolate HPG040, HSV-1 pol S911N (2732G>A), also TK deletion (C) nt 896-900, pol A1169T | read-out: Drug susceptibility Aciclovir (ACV), isolate HPG042, HSV-1 pol A972V (2915C>T), also TK deletion (C) nt 881-885, pol A1169T | read-out: Drug susceptibility Aciclovir (ACV), isolate HPG042, HSV-1 pol G22R (64G>A), also TK deletion (C) nt 881-885, pol A1169T | read-out: Drug susceptibility Aciclovir (ACV), isolate HPG050, HSV-1 TK Q34* (100C>T) | read-out: Drug susceptibility Aciclovir (ACV), isolate HPG053, HSV-1 pol L802R + A834S (2405T>G, 2500G>T), also TK R176W | read-out: Drug susceptibility Aciclovir (ACV), isolate HPG053, HSV-1 pol S911N (2732G>A), also TK R176W, pol A1169T
